Data set [1] can be described thus: Solubility assay (kinetic solubility, PBS pH 7). Type of data set: physicochemical. The following applies: pH 7, PBS; for solubility kinetic: pH 7, aqueous buffer, kinetic from dmso stock, read-out: Solubility. The protocol:
The standard reference solutions were prepared by diluting the 10 mM stock in 10:80:10 solution of acetonitrile:methanol:DMSO to 100 µM.
The solubility value is calculated by the following equation:
Solubility [µM] = (Peak area of sample/ Peak area of standard) (Standard concentration)

Data set [2] can be described thus: Lactate dehydrogenase (LDH) release assay. Type of data set: cell-based. The protocol: (§1) HCT116 cells were stably transfected with a p53 responsive β-lactamase reporter and expanded in McCoy’s 5 A Medium with 10% fetal bovine serum (FBS), Blasticidin, and Penicillin/Streptomycin and then transferred to 1.5 ml freezing vials and stored under liquid nitrogen in growth media containing 5% DMSO. […] The cells were then seeded into a 384-well plate at a density of 8000 cells per well. […] The final working concentration of DMSO was 0.5%. Lactate dehydrogenase release was detected using the CytoTox-ONE Homogenous Membrane Integrity Assay Kit (Promega), as per the manufacturer’s instructions. Measurements were carried out using the Tecan plate reader. […] Measurements were taken a minimum of three times (biological replicates) and values are reported as geometric means of the replicates.

Data set [3] in a line: Experimental LogD (partition coefficient).
The subject of data set [4] is HCT116 cells. Description: Lactate dehydrogenase (LDH) release assay. Type of data set: cell-based. The protocol:
as §1

The mark [5] stands for this setting: 0% FBS 4Hr, read-out: LDH: Cytotoxicity assay EC50.
Where [6] appears, read: 10% FBS 16Hr, read-out: LDH: Cytotoxicity assay EC50.

In brackets after ≈: the same amount, converted by molar mass. Read-outs that look alike come from different tables or passages of the source. Positions of bridges follow the written chain, without caps; N, C: chain ends. Non-standard residues stand in square brackets, D forms with d. Residues, ends and D or L forms follow the SMILES beside them. Lys(N3) = [N-]=[N+]=NCCCC[C@H](N)C(=O)O; 2Nal = N[C@@H](Cc1ccc2ccccc2c1)C(=O)O; Lys(Me2) = CN(C)CCCC[C@H](N)C(=O)O; R8 = C=CCCCCCC[C@@](C)(N)C(=O)O; Cba = N[C@@H](CC1CCC1)C(=O)O; S5 = C=CCCC[C@](C)(N)C(=O)O; Aib = CC(C)(N)C(=O)O; Ahx = NCCCCCC(=O)O; βAla = NCCC(=O)O; Sar = CNCC(=O)O

A word on the EC50: it is the concentration that produces a half-maximal response. For `CC(=O)N[C@@H](CC(C)C)C(=O)N[C@H](C(=O)N[C@@H](Cc1ccccc1)C(=O)N[C@]1(C)CCCCCCC=CCCC[C@@](C)(C(=O)N[C@@H](CO)C(=O)N[C@@H](C)C(=O)N[C@@H](C)C(N)=O)NC(=O)[C@H](CC2CCC2)NC(=O)[C@H](CCC(N)=O)NC(=O)[C@H](C)NC(=O)[C@H](Cc2c[nH]c3cc(Cl)ccc23)NC(=O)[C@H](Cc2ccc(O)cc2)NC(=O)[C@H](CCC(=O)O)NC1=O)[C@@H](C)O` [MP-192], in data set [1], the Solubility entry was “Poorly Behaved”. For the same molecule, the EC50 in data set [2] (LDH: Cytotoxicity assay: EC50) worked out at 19.9 µM. In addition, the “Partition Coeff LogD” value in data set [3] was “Poorly Behaved”.
For `CC(=O)N[C@@H](CCCCN=[N+]=[N-])C(=O)N[C@H](C(=O)N[C@@H](Cc1ccccc1)C(=O)N[C@]1(C)CCCCC#CC#CCCC[C@@](C)(C(=O)N[C@@H](CCC(=O)O)C(=O)N[C@@H](C)C(=O)N[C@@H](Cc2ccccc2)C(=O)N[C@@H](C)C(=O)N[C@@H](C)C(=O)N[C@@H](Cc2ccccc2)C(N)=O)NC(=O)[C@H](CC2CCC2)NC(=O)[C@H](CCC(N)=O)NC(=O)[C@H](C)NC(=O)[C@H](Cc2c[nH]c3ccccc23)NC(=O)[C@H](Cc2ccc(O)cc2)NC(=O)[C@H](CCC(=O)O)NC1=O)[C@@H](C)O` [MP-444, Ac-K(N3)-TF(X)EYWAQ(Cba)(X)EAFAAF-NH2], the solubility kinetic in data set [1] is 167 µM (≈ 365 µg/mL). The EC50 in data set [2] (setting [5]) and in data set [2] (setting [6]) was more than 50.7 µM in each case. Moreover, the “LDH: Cytotoxicity assay % Effect” value in data set [4] (0% FBS 4Hr) worked out at 17.89%; in data set [4] (10% FBS 16Hr), 4.968%.
`CC(=O)N[C@@H](CCCCN)C(=O)N[C@@H](CCCCN)C(=O)N[C@H](C(=O)N[C@@H](CO)C(=O)N[C@@H](Cc1ccc2ccccc2c1)C(=O)N[C@]1(C)CCCCCCC=CCCC[C@@](C)(C(=O)N[C@@H](CCC(=O)O)C(N)=O)NC(=O)[C@H](CC2CCC2)NC(=O)[C@H](CC(C)C)NC(=O)[C@H](C)NC(=O)[C@H](Cc2c[nH]c3ccccc23)NC(=O)[C@H](Cc2ccc(O)cc2)NC(=O)[C@H](CCC(=O)O)NC1=O)[C@@H](C)O` [MP-158] (Ac-KKTS[2Nal][R8]EYWAL[Cba][S5]E-NH2; staple 6-13) came in with an EC50 in data set [2] (LDH: Cytotoxicity assay EC50) of more than 50 µM. For the same molecule, the “LDH: Cytotoxicity assay % Effect” value in data set [4] is recorded as 9.197%.
Regarding `CC(=O)N[C@@H](CCCCN(C)C)C(=O)N[C@@H](CCCCN(C)C)C(=O)NCCCCCC(=O)N[C@H](C(=O)N[C@@H](CO)C(=O)N[C@@H](Cc1ccccc1)C(=O)N[C@]1(C)CCCCCCC=CCCC[C@@](C)(C(=O)N[C@@H](CCC(=O)O)C(=O)N[C@@H](CC(N)=O)C(=O)N[C@@H](Cc2ccccc2)C(N)=O)NC(=O)[C@H](CC(C)C)NC(=O)[C@H](CC(C)C)NC(=O)[C@H](C)NC(=O)[C@H](Cc2c[nH]c3ccccc23)NC(=O)[C@H](Cc2ccc(O)cc2)NC(=O)[C@H](CCC(=O)O)NC1=O)[C@@H](C)O` [MP-2042] (Ac-[Lys(Me2)][Lys(Me2)][Ahx]TSF[R8]EYWALL[S5]ENF-NH2; staple 7-14), in data set [2] (LDH: Cytotoxicity assay EC50), the concentration for a half-maximal effect (EC50) is more than 50 µM. In addition, the “LDH: Cytotoxicity assay % Effect” value in data set [4] is listed as 5.569%.
The corresponding values for `CCCC[C@H](NC(=O)[C@H](CC(C)C)NC(=O)[C@H](C)NC(=O)[C@H](Cc1c[nH]c2ccccc12)NC(=O)[C@H](Cc1ccc(O)cc1)NC(=O)[C@H](CCC(=O)O)NC(=O)C(C)(C)NC(=O)[C@H](Cc1ccccc1)NC(=O)[C@H](CO)NC(=O)[C@@H](NC(C)=O)[C@@H](C)O)C(=O)NC(C)(C)C(N)=O` [MP-156] are more than 50 µM and -1.482%.
For the molecule `CC(=O)N[C@@H](CCCNC(=N)N)C(=O)NCCCCCC(=O)N[C@@H](CCCCN=[N+]=[N-])C(=O)N[C@@H](CC(C)C)C(=O)N[C@H](C(=O)N[C@@H](Cc1ccccc1)C(=O)N[C@]1(C)CCCCCCC=CCCC[C@@](C)(C(=O)N[C@@H](CO)C(=O)N[C@@H](C)C(=O)N[C@@H](C)C(N)=O)NC(=O)[C@H](CC2CCC2)NC(=O)[C@H](CCC(N)=O)NC(=O)[C@H](C)NC(=O)[C@H](Cc2c[nH]c3ccccc23)NC(=O)[C@H](Cc2ccc(O)cc2)NC(=O)[C@H](CCC(=O)O)NC1=O)[C@@H](C)O` [MP-005], the concentration giving a half-maximal response (EC50) in data set [2] (LDH: Cytotoxicity assay: EC50) is more than 50 µM. Further, the “LDH: Cytotoxicity assay: % Effect” value in data set [4] is 39.54%.
In data set [2] (LDH: Cytotoxicity assay EC50), `CC(=O)N[C@H](C(=O)N[C@@H](CO)C(=O)N[C@@H](Cc1ccccc1)C(=O)NC(C)(C)C(=O)N[C@@H](CCC(=O)O)C(=O)N[C@@H](Cc1ccc(O)cc1)C(=O)N[C@@H](Cc1c[nH]c2ccccc12)C(=O)N[C@@H](C)C(=O)N[C@@H](CC(C)C)C(=O)N[C@@H](CC1CCC1)C(=O)NC(C)(C)C(N)=O)[C@@H](C)O` [MP-1154] (Ac-TSF[Aib]EYWAL[Cba][Aib]-NH2) showed a concentration giving a half-maximal response (EC50) of more than 50 µM. In addition, in data set [4], the “LDH: Cytotoxicity assay % Effect” value is listed as 17.78%.
With `CC(=O)N[C@@H](CCCCN=[N+]=[N-])C(=O)NCCC(=O)N[C@@H](CC(C)C)C(=O)N[C@H](C(=O)N[C@@H](Cc1ccccc1)C(=O)N[C@]1(C)CCCCCCC=CCCC[C@@](C)(C(=O)N[C@@H](C)C(=O)N(C)CC(=O)N(C)CC(=O)N(C)CC(=O)N(C)CC(=O)N(C)CC(N)=O)NC(=O)[C@H](CC2CCC2)NC(=O)[C@H](CCC(N)=O)NC(=O)[C@H](C)NC(=O)[C@H](Cc2c[nH]c3ccccc23)NC(=O)[C@H](Cc2ccc(O)cc2)NC(=O)[C@H](CCC(=O)O)NC1=O)[C@@H](C)O` [MP-443] (Ac-[Lys(N3)][βAla]LTF[R8]EYWAQ[Cba][S5]A[Sar][Sar][Sar][Sar][Sar]-NH2; staple 6-13), in data set [1], the solubility kinetic came to 180 µM (≈ 390 µg/mL). Moreover, the concentration for a half-maximal effect (EC50) in data set [2] (setting [5]) and in data set [2] (setting [6]) was more than 50.7 µM in each case. In addition, the “LDH: Cytotoxicity assay % Effect” value in data set [4] (0% FBS 4Hr) is reported as 8.392%; in data set [4] (10% FBS 16Hr), 2.311%.
Regarding `CC(=O)N[C@@H](CCCCN=[N+]=[N-])C(=O)NCCC(=O)N[C@@H](CC(C)C)C(=O)N[C@H](C(=O)N[C@@H](Cc1ccccc1)C(=O)N[C@]1(C)CCCCCCC=CCCC[C@@](C)(C(=O)N[C@@H](C)C(=O)NC(C)(C)C(=O)NC(C)(C)C(=O)NC(C)(C)C(=O)NC(C)(C)C(=O)NC(C)(C)C(N)=O)NC(=O)[C@H](CC2CCC2)NC(=O)[C@H](CCC(N)=O)NC(=O)[C@H](C)NC(=O)[C@H](Cc2c[nH]c3ccccc23)NC(=O)[C@H](Cc2ccc(O)cc2)NC(=O)[C@H](CCC(=O)O)NC1=O)[C@@H](C)O` [MP-413] (Ac-[Lys(N3)][βAla]LTF[R8]EYWAQ[Cba][S5]A[Aib][Aib][Aib][Aib][Aib]-NH2; staple 6-13), the concentration for a half-maximal effect (EC50) in data set [2] (setting [5]) and in data set [2] (setting [6]) was more than 50.7 µM in each case. For the same molecule, the “LDH: Cytotoxicity assay % Effect” value in data set [4] (0% FBS 4Hr) is 8.4%; in data set [4] (10% FBS 16Hr) it was 10.36%.
In turn, `CC(=O)N[C@@H](CN)C(=O)NCCCCCC(=O)N[C@H](C(=O)N[C@@H](CO)C(=O)N[C@@H](Cc1ccccc1)C(=O)N[C@]1(C)CCCCCCC=CCCC[C@@](C)(C(=O)N[C@@H](CCC(=O)O)C(=O)N[C@@H](CC(N)=O)C(=O)N[C@@H](Cc2ccccc2)C(N)=O)NC(=O)[C@H](CC(C)C)NC(=O)[C@H](CC(C)C)NC(=O)[C@H](C)NC(=O)[C@H](Cc2c[nH]c3ccccc23)NC(=O)[C@H](Cc2ccc(O)cc2)NC(=O)[C@H](CCC(=O)O)NC1=O)[C@@H](C)O` [MP-665] yielded a half-maximal effective concentration (EC50) in data set [2] (LDH: Cytotoxicity assay EC50) of more than 50 µM. The “LDH: Cytotoxicity assay % Effect” value in data set [4] came out at 4.993%.
The corresponding values for `CC(=O)N[C@@H](CCCCN)C(=O)N[C@@H](CCCCN)C(=O)N[C@H](C(=O)N[C@@H](CO)C(=O)N[C@@H](Cc1ccccc1)C(=O)N[C@]1(C)CCCCCCC=CCCC[C@@](C)(C(N)=O)NC(=O)[C@H](CC2CCC2)NC(=O)[C@H](CC(C)C)NC(=O)[C@H](C)NC(=O)[C@H](Cc2c[nH]c3ccccc23)NC(=O)[C@H](Cc2ccc(O)cc2)NC(=O)[C@H](CCC(=O)O)NC1=O)[C@@H](C)O` [MP-087] (Ac-KKTSF[R8]EYWAL[Cba][S5]-NH2; staple 6-13) are 35.2 µM and 23.77%.
`CC(=O)N[C@H](C(=O)N[C@@H](CCCNC(N)=O)C(=O)N[C@@H](CC(C)C)C(=O)N[C@H](C(=O)N[C@@H](Cc1ccccc1)C(=O)N[C@]1(C)CCCCCCC=CCCC[C@@](C)(C(=O)N[C@@H](CO)C(=O)N[C@@H](C)C(=O)N[C@@H](C)C(N)=O)NC(=O)[C@H](CC2CCC2)NC(=O)[C@H](CCC(N)=O)NC(=O)[C@H](C)NC(=O)[C@H](Cc2c[nH]c3ccccc23)NC(=O)[C@H](Cc2ccc(O)cc2)NC(=O)[C@H](CCC(=O)O)NC1=O)[C@@H](C)O)C(C)C` [MP-669] showed an EC50 in data set [2] (LDH: Cytotoxicity assay EC50) of more than 50 µM. Further, the “LDH: Cytotoxicity assay % Effect” value in data set [4] turned out to be 9.923%.
For `CC(=O)N[C@@H](CCCCN=[N+]=[N-])C(=O)NCCC(=O)N[C@@H](CC(C)C)C(=O)N[C@H](C(=O)N[C@@H](Cc1ccccc1)C(=O)N[C@]1(C)CCCCCCC=CCCC[C@@](C)(C(=O)N[C@@H](CO)C(=O)N[C@@H](C)C(=O)N[C@@H](C)C(N)=O)NC(=O)[C@H](CC2CCC2)NC(=O)[C@H](CCC(N)=O)NC(=O)[C@H](C)N(C)C(=O)[C@H](Cc2c[nH]c3ccccc23)NC(=O)[C@H](Cc2ccc(O)cc2)NC(=O)[C@H](CCC(=O)O)NC1=O)[C@@H](C)O` [MP-498], in data set [2] (LDH: Cytotoxicity assay: EC50), the EC50 is more than 50 µM. Also, in data set [4], the “LDH: Cytotoxicity assay: % Effect” value worked out at 7.026%.
